Data: patent US8344101B2, “Composition for improving brain function and method for improving brain function” (Calpis Co., Ltd., priority 2009, dated 2013)

Test system: scopolamine-induced amnesia
Assay: Y-shaped maze test of spontaneous alternation behavior in mice with scopolamine-induced amnesia
Assay type: in vivo
Details: male ddY mice, scopolamine 1 mg/kg s.c. 30 minutes before test
Protocol: Male mice (n=15 to 30) of the ddY strain (approximately 7-week old) were used, and they took food and water ad lib. Test substances used were 150 nmol/kg weight (380 μg/kg weight) and 500 nmol/kg weight (1280 μg/kg weight) of […](SEQ ID NO: 2 ). The test substances were administered to the mice once orally […] the execution of a Y-shaped maze test for evaluation of spontaneous alternation behavior. Further, 30 minutes before the execution of the Y-shaped maze test, 1 mg/kg weight of scopolamine was subcutaneously administered on the backs of the mice in order to induce brain dysfunction (dysmnesia and/or cognitive impairment) in the mice. In the Y-shaped maze test, a Y-shaped maze was used as an experimental device, in which the length of each arm was 40 cm, the height of the wall was 12 cm, the width of the floor was 3 cm, and the width of the upper part was 10 cm, and three arms were connected to each other at an angle of 120 degrees. Each of the mice was placed at the tip of any one of the arms of the Y-shaped maze, and then let go to freely explore in the maze for 8 minutes. The sequence of the arms each of the mice entered was recorded. The number of entries by each of the mice for each of the anus during the measurement time was counted to be the total number of entries. In the sequence, the combination in which three different arms were selected in succession (for example, with the three arms respectively called A, B, and C, if the sequence of the arms entered is ABCBACACB, the count is 4 inclusive of overlapping) was investigated, and the number of the count was used as the number of spontaneous alternation behavior. The percentage of spontaneous alternation behavior was calculated by dividing the number of spontaneous alternation behavior by a number obtained by subtracting 2 from the total number of entries, and multiplying a resultant number by 100. The percentage of spontaneous alternation behavior was used as an indicator. […] The measured values were expressed in the form of mean ±standard error for each group. A significant difference between the control group and the scopolamine control group was calculated using Student's t-test. Further, a significant difference between the scopolamine control group and the […] (SEQ ID NO: 2 )-administered group was calculated using Student's t-test.
Male mice (n=15 to 30) of the ddY strain (approximately 7-week old) were used, and they took food and water ad lib. Test substances used here were: 500 nmol/kg weight (1280 μg/kg weight) of […](SEQ ID NO: 2 ); 500 nmol/kg weight (1140 μg/kg weight) of […](SEQ ID NO: 1 ) ([…]); 500 nmol/kg weight (1400 μg/kg weight) of […]([…]) (SEQ ID NO: 3 ); and 500 nmol/kg weight (1150 μg/kg weight) of Ser-Trp-Met-His-Gln-Pro-His-Gln-Pro-Leu-Pro-Pro-Thr-Val-Met-Phe-Pro-Pro-Gln (SWMHQPHQPLPPTVMFPPQ) (SEQ ID NO: 5). The test substances were administered to the mice once orally 60 minutes before the execution of a Y-shaped maze test for evaluation of spontaneous alternation behavior. Further, 30 minutes before the execution of the Y-shaped maze test, 1 mg/kg weight of scopolamine was subcutaneously administered on the backs of the mice in order to induce brain dysfunction (dysmnesia and/or cognitive impairment) in the mice. […] The arms each of the mice entered were sequentially recorded. The number of entries by each of the mice for each of the arms during the measurement time was counted to be the total number of entries. […]

[1] = Example 2, single oral dose 500 nmol/kg weight 60 minutes before Y-shaped maze test, FIG. 2

Row | Sequence | prophylactic activity against amnesia (percentage of spontaneous alternation behavior) (Example 1, single oral dose ranging from 150 nmol/kg weight to 500 nmol/kg weight (380 to 1280 μg/kg weight), given 60 before Y-shaped maze test, FIG. 1) | prophylactic activity against amnesia (percentage of spontaneous alternation behavior) [1]
1 | SWMHQPHQPLPPTVMFPPQSVL (Synthetic functional peptide) | had a prophylactic activity against amnesia | had a prophylactic activity against amnesia
2 | LQSWMHQPHQPLPPTVMFPPQSVL (Synthetic functional peptide) | – | had a prophylactic activity against amnesia
3 | MHQPHQPLPPTVMFPPQSVL (Synthetic functional peptide) | – | had a prophylactic activity against amnesia
4 | SWMHQPHQPLPPTVMFPPQ (Synthetic comparative example peptide) [Ser-Trp-Met-His-Gln-Pro-His-Gln-Pro-Leu-Pro-Pro-Thr-Val-Met-Phe-Pro-Pro-Gln, C-terminally truncated related peptide tested for comparison] | – | did not show any activity
